# Results: a melting point compilation (Tetko et al.; mined from patent text by program, amines drawn as free bases though some values may be those of a salt)
# Residues, ends and D or L forms follow the SMILES beside them. *: point of attachment. Boc = CC(C)(C)OC(=O)*; OBn = c1ccc(CO*)cc1; βAla = NCCC(=O)O
row,melting point [°C],SMILES
1,158,O[C@@H]1CN=C(c2cccs2)O[C@H]1c1ccccc1 (racemic)
2,111 to 113,CCOC(=O)c1cc(CBr)cc(C(=O)OCC)c1
3,195,O=C1c2cccc(NC(=S)Nc3ccccn3)c2C2CCCCN12 (stereo unspecified)
4,146 to 150,CCCCCCCCCCC(=O)Nc1ccn(C2OC(CO)C(O)C2O)c(=O)n1 (stereo unspecified)
5,108 to 110,CN(C(=O)OC(C)(C)C)c1cc(Oc2ccccc2N2CCCCC2)ccc1N
6,211 to 218,O=S1(=O)N=CN(CCF)c2ccc(Cl)cc21
7,70 to 72,COc1ccc(C(=O)CC(=O)C(F)F)cc1F
8,261,CNC[C@H]1CC[C@H](C(=O)O)CC1
9,157 to 158,Cc1ccc2nc(-c3ccccc3C#N)n(C)c(=O)c2c1
10,132 to 134,CCOC(=O)C(CO)NC(=O)C(CC(=O)OCc1ccccc1)NC(=O)CCNC(=O)OC(C)(C)C (stereo unspecified) ({Boc-βAla}-Asp(OBn)-Ser-OEt; configuration not given here)
11,82 to 83,COc1cc(CN2CCc3cc(OCc4ccccc4)c(OC)cc3C2=O)cc(OC)c1
12,265 to 268,CN(C)C=Cc1[nH]c(=O)ccc1C(=O)c1ccc(Br)cc1
13,181,CC(CS)C(=O)NC(CC(N)=O)C(=O)O (stereo unspecified)
14,95 to 97,Cc1ccc(S(=O)(=O)Oc2ccc(C=O)cc2OS(=O)(=O)c2ccc(C)cc2)cc1
15,106,CC(=O)Nc1nc(Cl)c2ncn(COC(COC(C)C)COC(C)C)c2n1
16,103,CC(C)(C)[N+]([O-])=Cc1cc(Cl)cc(Cl)c1O
17,113 to 115,Cc1cc(-c2cc(CBr)c(=O)n(Cc3ccccc3Cl)n2)ccc1F
18,230 to 231,Cc1nc2c(o1)-c1c(SC(C)C)sc(C(N)=O)c1CC2
19,70 to 72,COC(=O)c1cc([N+](=O)[O-])ccc1OC(C)=O
20,124 to 126,COc1ccc(-c2nn(C(C)C)c(=O)c3ccsc23)cc1
21,215 to 219,CC12CCC(O)CC1=CCC1C2CCC2(C)C(c3ccsc3)=CCC12 (stereo unspecified)
22,161 to 162,N#CCN1C(=O)C2(COc3cc4c(cc32)OCCO4)c2ccccc21 (stereo unspecified)
23,187 to 188,CC1=C(C(=O)OC(C)C)C(c2cccc([N+](=O)[O-])c2)n2c(cc(=O)n2S(=O)(=O)c2ccccc2)N1 (stereo unspecified)
24,64 to 67,CC(C)c1cc(C(=O)O)cs1

row,melting point [°C],SMILES
1,102 to 106,CS(=O)(=O)Nc1cccc(NC(=O)C(=O)N2CCC(Cc3ccc(F)cc3)CC2)c1
2,74 to 76,CCCCc1nn(-c2ccccc2C(F)(F)F)c(=O)n1Cc1ccc(-c2ccccc2S(N)(=O)=O)cc1
3,66 to 67,Cc1ccc(OCc2ccccc2)cc1NCc1ccccc1
4,120,CCOC(=O)c1ccc2cccc([N+](=O)[O-])c2c1
5,50 to 52,COc1ccc(OC)c(OCCO)c1
6,236 to 237,CN1CCc2c([nH]c3ccc(NS(=O)(=O)c4ccc(N)cc4)cc23)C1
7,87 to 92,CCCC(=O)C(=O)C(CC1CCCCC1)NC(=O)C(CC(C)C)NC(=O)C(Cc1ccccc1)NC(=O)OC(C)(C)C (stereo unspecified)
8,210 to 211,Cc1cc(-c2nc3cccnn3c2-c2ccnc(NC(=O)c3ccc4ncccc4c3)c2)ccc1F
9,200 to 202,O=C(NC(c1ccccc1)(c1ccccc1)c1ccccc1)c1ccccc1
10,271,O=C(O)C(=O)c1ccc(OCCOc2ccnc3ccccc23)cc1
11,150 to 152,CCc1oc(C(c2ccccc2)c2ccccc2)nc1CC1CCc2c(cccc2OCC(=O)O)C1 (stereo unspecified)
12,214 to 217,C=CS(=O)(=O)c1cc2c(Nc3cccc(Br)c3)ncnc2cn1
13,213 to 214,O=C(O)c1c(-c2ccccc2)c2cc(OCc3ccccc3)ccc2n1Cc1cc2c(cc1Cl)OCO2
14,285 to 287,Cn1cc(C2=C(c3c4n(c5ccccc35)CCC(N=C=S)C4)C(=O)NC2=O)c2ccccc21 (stereo unspecified)
15,133 to 134,COC(=O)CNC(=O)c1ccc(Cl)c(Cl)c1
16,100,CC(C)OP(=O)(Cc1c(C(C)(C)C)cc(O)cc1C(C)(C)C)OC(C)C
17,218,CC(C)(C)NC(=O)c1nc(Cl)c(Cl)[nH]1
18,92 to 93,Cc1cc2c(cc1Br)C(O)CC(C)(C)O2 (stereo unspecified)
19,111 to 113,O=C(Nc1c(Cl)cncc1Cl)c1ccc(SCF)c(OC2CCCC2)c1
20,182,CCOC(=O)N1CCc2nc3cccc(N)c3c(C)c2CC1
21,97 to 98,CCCCCS(=O)(=O)NC(=O)/C(C)=C/c1ccc(OCCOC)cc1Oc1ncc(Cl)cc1Cl
22,114 to 131,CON=C(C)CN1C(=O)c2ccccc2C1=O
23,75 to 76,CCc1cc(=O)c2cc(CCO)ccc2o1
24,195 to 200,O=C1c2ccccc2C(=O)N1OCc1cn(C(c2ccccc2)(c2ccccc2)c2ccccc2)nn1

row,melting point [°C],SMILES
1,109 to 111,CCOC(=O)N1CCN(c2nn(-c3ccc(F)cc3)c3ccccc23)CC1
2,201 to 202,Cn1cc(C(=O)C(Cl)Cl)c(=O)c(-c2cccc(Cl)c2)c1
3,243 to 246,Cc1cc(F)cc2c1CC/C2=C\C(=O)O
4,193 to 196,CNC(=O)n1nc(-c2ccc(Cl)cc2)nc1N
5,122 to 124,COc1cc2nc(NCCNCC(O)COc3ccccc3)nc(N)c2cc1OC (stereo unspecified)
6,121 to 122,C#CCOC(=O)c1cc(Br)c(O)c(OC)c1
7,95 to 103,COc1cc(OC)c2c(c1)Oc1cc(Br)ccc1CC2=O
8,86 to 88,CC(C)OC(=O)c1cc(N=c2sc(=O)n3n2CCCC3)c(F)cc1F
9,154 to 155,N=C(Nc1ccccc1I)Nc1cccc2ccccc12
10,181 to 184,C[C@H](NS(=O)(=O)c1ccc(-c2c(C#N)c3ccc(C4CC4)cc3n2-c2ncccn2)nc1)C(F)(F)F
11,105 to 108,COc1cc(C(=O)NCCc2cccc(C)c2)cc(OC)c1OC
12,61 to 62,C=CC(=O)Cc1ccc(-c2ccc(CC(=O)C=C)cc2)cc1
13,256 to 257,Cc1nc2c3ccccc3ccn2c1Cc1nnn[nH]1
14,112 to 113,COCC(C)Oc1cc(Oc2ccc(S(C)(=O)=O)cc2)cc2cc(C3=NCC(CC(C)(C)O)S3)[nH]c12 (stereo unspecified)
15,289 to 291,Cc1c(S(=O)(=O)Nc2ccc(-c3nc(C(=O)O)co3)cc2S(C)(=O)=O)sc2ccc(F)cc12
16,155 to 156,Nc1ccc2nccnc2c1Br
17,64 to 66,CCCCCOc1cc(-n2c(=O)cc(C(F)(F)F)n(C)c2=O)c(F)cc1Cl
18,100 to 101,CC(=O)C=Cc1cc2ccccc2o1
19,150 to 152,Cc1sc2cc(CC(=O)O)ccc2c1Br
20,145 to 146,CC(CC(O)(C(=O)O)C(F)(F)F)c1ccccc1 (stereo unspecified)
21,215,O=C1CN(C(=O)COc2cc(-c3ccccc3)nc3ccccc23)CCN1
22,63 to 64,CCCCc1nc(C(O)(CC)CC)c(C(=O)OCC)[nH]1
23,137 to 138,CC1(C)C(=O)N(c2ccc([N+](=O)[O-])c(C(F)(F)F)c2)C(=O)N1CCCCCCCN1C(=O)N(c2ccc([N+](=O)[O-])c(C(F)(F)F)c2)C(=O)C1(C)C
24,150 to 154,O=C(c1ccc(-c2ccccn2)s1)N1CCCCc2sccc21

row,melting point [°C],SMILES
1,161 to 163,CCC(=CC(CNC(=O)c1cccnc1SC)=NO)C(C)[N+](=O)[O-] (stereo unspecified)
2,217 to 219,O=C(NN=C1c2cccc(F)c2SCC1c1ccc(F)cc1)Nc1ccc(C(F)(F)F)cc1 (stereo unspecified)
3,203 to 204,CN1CCC(OC(=O)N2c3ccccc3NC(=O)c3ccccc32)CC1
4,182 to 183,CNC(=O)c1cnn(-c2ccccc2)c1Cl
5,204 to 205,Cc1cc2c(-c3ccccc3C)c(C(=O)O)c(=O)n(C)c2cc1Cl
6,208 to 209,C=CCNC(=O)NCC1Cc2ccc(-c3ccc(=O)[nH]n3)cc2C1 (stereo unspecified)
7,208 to 210,COCCn1nc(-c2sc(N)nc2-c2ccccc2)ccc1=O
8,167 to 169,Cc1nc2c(cc1C(=O)O)CCCCC2
9,109 to 110,O=C(O)C(=O)c1ccc(OCC(=O)C2CCCCCCC2)cc1
10,170,CCCCc1nc2ncccc2n1Cc1ccc(-c2ccccc2C(=O)O)cc1
11,157 to 159,NC(=O)CCN1CC2CN(Cc3ccccc3)CC(C1)O2
12,73 to 75,CC(C)(CF)C(=O)C(Br)Oc1ccc(Cl)cc1 (stereo unspecified)
13,230 to 233,COC(=O)c1[nH]c2ccc(C)cc2c1Sc1ccc(Cl)cc1
14,123 to 125,COc1cc2c3c(sc2c(Cl)c1Cl)CCCC3
15,84,CCN(CC)C(=O)n1cc(C(=O)C2CSC(c3cccnc3)N2)c2ccccc21 (stereo unspecified)
16,139 to 143,O=C1C(CCO)Oc2cc([N+](=O)[O-])ccc2N1Cc1ccccc1[N+](=O)[O-] (stereo unspecified)
17,87 to 88,CCCC(CCC)(CCC(N)=S)C(CCC)(CCC)C(N)=S
18,70.5 to 71.5,CC(C)S(=O)(=O)c1cccc(OS(C)(=O)=O)n1
19,178 to 179,CCN1CCN(c2nc(-c3ccccc3)nc3sc(C#N)c(C)c23)CC1
20,224,Cc1cc2cc(Oc3ccccc3)cnc2cc1C
21,110 to 112,CCCCCCCCCCCC(=O)NCCNCCNCCNC(=O)CCCCCCCCCCC
22,128,CNC(Cc1ccccc1)c1nc(C(=O)NCc2ccccc2)no1 (stereo unspecified)
23,159 to 161,COc1ccccc1C=C1N=C(c2ccccc2)OC1=O
24,142 to 144,CC(=O)Nc1ccc(S(=O)(=O)NCCN2[C@H](C)Cc3ccsc3[C@@H]2C)cc1 (relative stereo)

row,SMILES,melting point [°C]
1,N#CCCc1ccc(OCC2(O)CN3CCC2CC3)cc1 (stereo unspecified),92 to 94
2,O=C(NN1CCN(CCc2c[nH]c3ccccc23)CC1)c1ccccc1,227 to 229
3,ClCc1nc(Cl)c2sccc2n1,101 to 102
4,Cc1cc(C)c(Cn2cc(C(=O)C(=O)NC3=CC(=O)OC3)c3ccccc32)c(C)c1,288 to 290
5,O=[N+]([O-])c1nccn1CC(O)CN1C2CCCCCCC21 (stereo unspecified),120 to 122
